Test results as given in US9757408B2 (Hayashibara Co., Ltd., priority 2010, dated 2017).
Marks after values point to notes of the source that are not given here.

What was measured:
[1] = test system: mice with bacterial shock induced by LPS; experiment: LPS bacterial shock mice, survival, ANO, adenosine or inosine i.v. (Experiment 9); format: in vivo, BALB/c mice; conditions: LPS 18 mg/kg i.p.
Procedure: An LPS specimen derived from E. coli (055:B5), commercialized by Sigma-Aldrich Corporation, St. Louis, Mo. USA, was dissolved in PBS and intraperitoneally administered to all the seven mice in the four groups at a dose of 18 mg/kg body weight. […] Seven mice in the remaining one group were intravenously administered with PBS as a control in a volume of 0.2 mL/head (Experiment group 1). For each group, the survival number of mice was confirmed up to 7 to 43 hours after administering LPS and the survival rate (%) of mice in each group was determined.

[2] = test system: mouse with severe acute pancreatitis induced by choline-deficient ethionine-added feed; experiment: Severe acute pancreatitis induced by choline-deficient ethionine-added feed, survival (Experiment 15); format: in vivo, CD1(ICR) mice
From the text: After seven days of a preliminary breeding, the mice were fasted for one day and allowed to freely take a choline-deficient ethionine-added feed, produced by Oriental Yeast Co., Ltd., Tokyo, Japan, for three days from the next day. Thereafter, the mice were fed on normal feed again and then fed on the choline-deficient ethionine-added feed. […] Eight mice in the remaining one group as a control were orally administered through a gastric tube with distilled water twice a day every morning and evening in a liquid volume of 0.2 mL/head/shot from the initiation of fasting. The survival number of mice in each group was macroscopically confirmed up to seven days from the initiation of taking the choline-deficient ethionine-added feed, and the survival rate (%) of mice in each group was determined. The survival rate (%) of mice was determined similarly as in Experiment 1.

[3] = test system: picryl chloride-sensitized mice; experiment: Picryl chloride-sensitized mice atopic dermatitis, skin score (Experiment 16); format: in vivo, NC/Nga mice; conditions: for Skin score, 21 days after the day of sensitizing with picryl chloride: gel on dorsal skin twice a day (ANO 14 mg/mL, AN or IN 13 mg/mL, prednisolone 6.7 mg/mL from 3rd induction week), day 21; for Skin score, 24 days after the day of sensitizing with picryl chloride / Skin score, 28 days after the day of sensitizing with picryl chloride / Skin score, 31 days after the day of sensitizing with picryl chloride / Skin score, 35 days after the day of sensitizing with picryl chloride / Skin score, 39 days after the day of sensitizing with picryl chloride / Skin score, 42 days after the day of sensitizing with picryl chloride / Skin score, 45 days after the day of sensitizing with picryl chloride: gel on dorsal skin twice a day (ANO 14 mg/mL, AN or IN 13 mg/mL, prednisolone 6.7 mg/mL); for Skin score, 24 days after the day of sensitizing with picryl chloride: day 24; for Skin score, 28 days after the day of sensitizing with picryl chloride: day 28; for Skin score, 31 days after the day of sensitizing with picryl chloride: day 31; for Skin score, 35 days after the day of sensitizing with picryl chloride: day 35; for Skin score, 39 days after the day of sensitizing with picryl chloride: day 39; for Skin score, 42 days after the day of sensitizing with picryl chloride: day 42; for Skin score, 45 days after the day of sensitizing with picryl chloride: day 45
From the text: (§1) The results are in Table 19 in parallel.

[4] = test system: IL-4 production of spleen cells; experiment: IL-4 production of spleen cells stimulated with anti-CD3 antibody, from gel-treated mice (Experiment 16); format: in vivo, NC/Nga mice; conditions: for production level of IL-4 of spleen cells stimulated with the anti-CD3 antibody: compared to mice applied with gel prepared by adding refined water (Experiment group 1); for Content of IL-4: supernatant of spleen cells stimulated with anti-CD3 antibody
Procedure: (§2) On Friday of the 6th week of the induction (46th day after initiating the application), all the mice were sacrificed, followed by isolating their spleens and collecting spleen cells in usual manner. […] To each well 2 μg/mL of “Purified Mouse CD3ε Monoclonal Antibody”, a product name of an anti-CD3 antibody, commercialized by Cosmo Bio Co., Ltd., Tokyo, Japan, was added, and the cells were incubated at 37° C. for three days in a 5% v/v CO2 incubator, followed by assaying the levels of cytokines in each supernatant thereof.
as §1

[5] = test system: IL-6 production of spleen cells; experiment: IL-6 production of spleen cells stimulated with anti-CD3 antibody, from gel-treated mice (Experiment 16); format: in vivo, NC/Nga mice; conditions: for production level of IL-6 of spleen cells stimulated with the anti-CD3 antibody: compared to mice applied with gel prepared by adding refined water (Experiment group 1); for Content of IL-6: supernatant of spleen cells stimulated with anti-CD3 antibody, picryl chloride-sensitized mice applied with gel
Procedure: as §2, §1

NHEK cells [6] = experiment: Cytotoxicity (released LDH) of NHEK cells irradiated with ultraviolet B (Experiment 17); format: cell-based, human; conditions: for LDH Activity: NHEK cells, stimulation by ultraviolet rays
[7] = test system: IL-1α production from NHEK cells; experiment: IL-1α production from NHEK cells irradiated with ultraviolet B (Experiment 17); format: cell-based, human; conditions: for IL-1α: NHEK cells, stimulation by ultraviolet rays; for production of IL-1α from NHEK cells augmented by ultraviolet rays: UVB 40 mJ/cm^2, supernatant at six hours
Procedure: (§3) “CELLMATRIX TYPE IV”, a product name of collagen for tissue culture commercialized by Nitta Gelatin Inc., Osaka, Japan, which had been diluted with PBS(K-) by 10 times, was previously placed in “FALCON 35-3001”, a product name of 35 mm petri dish commercialized by Becton Dickinson and Company, NJ, USA, in an amount of 1 mL/plate, and then allowed to stand at ambient temperature for 10 min, followed by removing an excessive amount of CELLMATRIX, drying the petri dish in air, and washing it thrice with PBS(K-). […] The cells were cultured at 37° C. in a 5% v/v CO2 incubator. On the 2nd and 4th days after the cell inoculation, the medium was replaced with EpiLife medium free of EDGS (1 mL/plate). On the 5th day after the cell inoculation, the supernatant was removed, and the petri dish was washed twice by adding 1 mL/petri dish of Hanks' balanced salt solution (called “HBSS (−) buffer”, hereinafter). Further, 2 mL/petri dish of HBSS (−) buffer was added to the petri dish which was then placed in the position 15 cm apart from an ultraviolet ray light source and irradiated with 40 mJ/cm^2 of ultraviolet B radiation. […] As an ultraviolet ray light source, “NS-8F”, a light source for actual use commercialized by Sanwa Medical Co., Ltd., Okayama, Japan, equipped with an ultraviolet B radiation lamp was used, and the radiation dose was measured on “UVR-305/365D (II)”, an ultraviolet ray meter commercialized by Topcon Corporation, Tokyo, Japan. TNF-α was assayed by the same method as in Experiment 2. The remaining other cytokines were assayed with an IL-1α assay kit, commercialized by R & D Systems Inc., MN, USA, and an IL-8 assay kit commercialized by BioLegend, CA, USA.

[8] = test system: TNF-α production from mouse intraperitoneal macrophages; experiment: IC50 for TNF-α production from mouse macrophages, LPS + IFN-γ, nucleic acid derivatives (Experiment 19); format: cell-based; conditions: for IC50: Mus musculus, Macrophage, 20 h, read-out: IC50 Concentration TNF-α
From the text: (§4) After completion of the culture, the supernatant in each well was collected and assayed for cytokines and prostaglandin E2 (called “PGE2”, hereinafter) with ELISA.

[9] = test system: IL-12 production from mouse intraperitoneal macrophages; experiment: IC50 for IL-12 production from mouse macrophages, LPS + IFN-γ (Experiment 19); format: cell-based; conditions: for IC50: Mus musculus, Macrophage, 20 h, read-out: IC50 Concentration IL-12
From the text: as §4

[10] = test system: PGE2 production from mouse intraperitoneal macrophages; experiment: IC50 for PGE2 production from mouse macrophages, LPS + IFN-γ (Experiment 19); format: cell-based; conditions: for IC50: Mus musculus, Macrophage, 20 h, read-out: IC50 Concentration PGE2
From the text: as §4

NHEK cells [11] = experiment: Proliferation of NHEK cells irradiated with ultraviolet rays, fluorescent intensity (Experiment 17); format: cell-based, human; conditions: stimulation by ultraviolet rays
Procedure: as §3

[12] = oral 124 mg/kg body weight/shot twice a day
[13] = picryl chloride-sensitized mice applied with gel
[14] = mouse intraperitoneal macrophages stimulated with LPS and IFN-γ
[15] = oral 46 mg/kg body weight/shot twice a day
[16] = oral 139 mg/kg body weight/shot twice a day

Compound: Nc1ncnc2c1ncn2[C@@H]1O[C@H](CO)[C@@H](O)[C@H]1O [AN, adenosine]
- Survival rate (%) of mice, 7 Hours ([1]; 127 mg/kg i.v. simultaneously): 100%
- Survival rate (%) of mice, 19 Hours ([1]; 127 mg/kg i.v. simultaneously): 20%
- Survival rate (%) of mice, 26 Hours ([1]; 127 mg/kg i.v. simultaneously): 0%
- Survival rate (%) of mice, 43 Hours ([1]; 127 mg/kg i.v. simultaneously): 0%
- Survival rate (%) of mice, 48 Hours [2, 12]: 100.0%
- Survival rate (%) of mice, 70 Hours [2, 12]: 20.0%
- Survival rate (%) of mice, 78 Hours [2, 12]: 50.0%
- Survival rate (%) of mice, 94 Hours [2, 12]: 25.0%
- Survival rate (%) of mice, 102 Hours [2, 12]: 12.5%
- Survival rate (%) of mice, 144 Hours [2, 12]: 12.5%
- Skin score, 21 days after the day of sensitizing with picryl chloride [3]: 0.50
- Skin score, 24 days after the day of sensitizing with picryl chloride [3]: 0.50
- Skin score, 28 days after the day of sensitizing with picryl chloride [3]: 2.75
- Skin score, 31 days after the day of sensitizing with picryl chloride [3]: 3.55
- Skin score, 35 days after the day of sensitizing with picryl chloride [3]: 5.56
- Skin score, 39 days after the day of sensitizing with picryl chloride [3]: 5.78
- Skin score, 42 days after the day of sensitizing with picryl chloride [3]: 6.22
- Skin score, 45 days after the day of sensitizing with picryl chloride [3]: 5.50
- production level of IL-4 of spleen cells stimulated with the anti-CD3 antibody [4]: showed no difference
- Content of IL-4 [4, 13]: 9.8 ng/mL
- production level of IL-6 of spleen cells stimulated with the anti-CD3 antibody [5]: showed no difference
- Content of IL-6 [5]: 192 ng/mL
- LDH Activity (NHEK cells [6]; 1 μM): 0.35 absorbance
- LDH Activity (NHEK cells [6]; 5 μM): 0.36 absorbance
- LDH Activity (NHEK cells [6]; 10 μM): 0.35 absorbance
- IL-1α ([7]; 1 μM): 243 pg/mL
- IL-1α ([7]; 5 μM): 244 pg/mL
- IL-1α ([7]; 10 μM): 239 pg/mL
- production of IL-1α from NHEK cells augmented by ultraviolet rays [7]: did not influence
- IC50 [8]: 17400 nM
- inhibitory action on the production of inflammatory cytokines (in words) [8, 14]: only a weak inhibitory action
- IC50 [9]: 14000 nM
- IC50 [10]: > 200000 nM
- Proliferation (NHEK cells [11]; 1 μM): 5701 Fluorescent intensity
- Proliferation (NHEK cells [11]; 5 μM): 5683 Fluorescent intensity
- Proliferation (NHEK cells [11]; 10 μM): 5578 Fluorescent intensity

Compound: Nc1c2ncn([C@@H]3O[C@H](CO)[C@@H](O)[C@H]3O)c2nc[n+]1[O-] [ANO, adenosine N1-oxide]
- Survival rate (%) of mice, 7 Hours ([1]; 135 mg/kg i.v. simultaneously): 100%
- Survival rate (%) of mice, 19 Hours ([1]; 135 mg/kg i.v. simultaneously): 80%
- Survival rate (%) of mice, 26 Hours ([1]; 135 mg/kg i.v. simultaneously): 80%
- Survival rate (%) of mice, 43 Hours ([1]; 135 mg/kg i.v. simultaneously): 80%
- Survival rate (%) of mice, 48 Hours [2, 15]: 100.0%
- Survival rate (%) of mice, 70 Hours [2, 15]: 100.0%
- Survival rate (%) of mice, 78 Hours [2, 15]: 50.0%
- Survival rate (%) of mice, 94 Hours [2, 15]: 25.0%
- Survival rate (%) of mice, 102 Hours [2, 15]: 12.5%
- Survival rate (%) of mice, 144 Hours [2, 15]: 12.5%
- Survival rate (%) of mice, 48 Hours [2, 16]: 100.0%
- Survival rate (%) of mice, 70 Hours [2, 16]: 87.5%
- Survival rate (%) of mice, 78 Hours [2, 16]: 75.0%
- Survival rate (%) of mice, 94 Hours [2, 16]: 75.0%
- Survival rate (%) of mice, 102 Hours [2, 16]: 75.0%
- Survival rate (%) of mice, 144 Hours [2, 16]: 75.0%
- Skin score, 21 days after the day of sensitizing with picryl chloride [3]: 0.75
- Skin score, 24 days after the day of sensitizing with picryl chloride [3]: 1.00
- Skin score, 28 days after the day of sensitizing with picryl chloride [3]: 2.25
- Skin score, 31 days after the day of sensitizing with picryl chloride [3]: 3.38
- Skin score, 35 days after the day of sensitizing with picryl chloride [3]: 4.50
- Skin score, 39 days after the day of sensitizing with picryl chloride [3]: 3.58*
- Skin score, 42 days after the day of sensitizing with picryl chloride [3]: 4.38*
- Skin score, 45 days after the day of sensitizing with picryl chloride [3]: 3.63*
- recovery of skin wounds in the inflammation-induced part ([3]; picryl chloride-sensitized NC/Nga mice, gel application): cure/improvement of wounds induced by inflammation was observed
- production level of IL-4 of spleen cells stimulated with the anti-CD3 antibody [4]: significantly lower
- production ratio of IL-4/IFN-γ of spleen cells stimulated with the anti-CD3 antibody ([4]; spleen cells of gel-treated mice): close to that of the mice of the normal group
- Ratio of IL-4/IFN-γ ([4]; spleen cells stimulated with anti-CD3 antibody, picryl chloride-sensitized mice applied with gel): 0.32
- Content of IL-4 [4, 13]: 2.8* ng/mL
- production level of IL-6 of spleen cells stimulated with the anti-CD3 antibody [5]: significantly lower
- Content of IL-6 [5]: 129* ng/mL
- LDH Activity (NHEK cells [6]; 1 μM): 0.32 absorbance
- LDH Activity (NHEK cells [6]; 5 μM): 0.23 absorbance
- LDH Activity (NHEK cells [6]; 10 μM): 0.14 absorbance
- LDH released from NHEK cells by the stimulation of ultraviolet rays (NHEK cells [6]; UVB 40 mJ/cm^2, supernatant at four hours): inhibited LDH released
- IL-1α ([7]; 1 μM): 203 pg/mL
- IL-1α ([7]; 5 μM): 173 pg/mL
- IL-1α ([7]; 10 μM): 140 pg/mL
- production of IL-1α from NHEK cells augmented by ultraviolet rays [7]: inhibited
- IC50 [8]: 300 nM
- IC50 [9]: 1400 nM
- inhibitory action on the production of IL-12 (in words) [9, 14]: showed an inhibitory action
- IC50 [10]: 1200 nM
- inhibitory action on the production of PGE2 (in words) [10, 14]: showed an inhibitory action
- Proliferation (NHEK cells [11]; 1 μM): 5540 Fluorescent intensity
- Proliferation (NHEK cells [11]; 5 μM): 5607 Fluorescent intensity
- Proliferation (NHEK cells [11]; 10 μM): 5682 Fluorescent intensity
